Laboratory results from patent US20240181087A1, “COMPOSITION FOR CONTRAST IMAGING OF CANCER” (ASTELLAS PHARMA INC., priority 2021, published 2024).

Assays:
[1] = system: human glioblastoma cells U-251MG; test: near-infrared fluorescence imaging after topical administration into tumor, human glioblastoma subcutaneous transplant model; format: in vivo; conditions: U-251MG glioblastoma, SCID mouse, 0.02 to 0.1 mL of 1 mg/mL, 1 hour after administration
Procedure: A human cancer cell transplant model mouse was created as follows: • (Head and neck/tongue cancer) To immunodeficient SCID mice (weight: 17 g to 23 g), about 10^6 human tongue cancer cells CAL27 (purchased from American Type Culture Collection: ATCC) were subcutaneously administered, and the resultant mice were grown for 49 days to create tumor models. • (Brain cancer/neuroblastoma) To immunodeficient SCID mice (weight: 17 g to 23 g), about 10^6 human neuroblastoma cells SH-SY5Y (purchased from ATCC) were subcutaneously administered, and the resultant mice were grown for 90 days to create tumor models. • (Brain cancer/glioblastoma) To immunodeficient SCID mice (weight: 17 g to 23 g), about 10^6 human glioblastoma cells U-251MG (obtained from European Collection of Authenticated Cell Cultures) were subcutaneously administered, and the resultant mice were grown for 90 days to create tumor models.
Subsequently, to the tumor of each of the mouse models, 0.02 to 0.1 mL of a saline containing the compound III (concentration of the compound III: 1 mg/mL) was topically administered, and fluorescence imaging was conducted transdermally with a near-infrared fluorescence camera (Fluobeam, manufactured by Fluoptics) (excitation wavelength: 780 nm, detection wavelength: 800 nm or more).

[2] = system: Human stomach cancer cell MKN45-Luc; test: near-infrared fluorescence observation of abdominal cavity, peritoneal dissemination mouse model; format: in vivo; conditions: tail vein 40 nmol/kg, 10 minutes
Description: Human stomach cancer cell MKN45-Luc (5×10^6 cells, purchased from JCRB cell bank of National Institutes of Biomedical Innovation, Health and Nutrition) was intraperitoneally injected into a nude mouse (BALB/cSlc-nu, SPF, male, weight: about 20 g), and the resultant mouse was bred for 15 days to create a nude mouse having peritoneal dissemination. […] The near-infrared fluorescence was not emitted from the abdominal cavity of the normal mouse (FIG. 22).

[3] = system: Human stomach cancer cell MKN45; test: near-infrared fluorescence observation, human stomach cancer cell subcutaneous transplant mouse; format: in vivo; conditions: nude mouse, tail vein 120 nmol/kg, observed from above the skin
Description: Human stomach cancer cell MKN45 (1×10^7 cells, purchased from JCRB cell bank of National Institutes of Biomedical Innovation, Health and Nutrition) was subcutaneously transplanted into the right or left side, or the center of the back in the base of the foreleg of a nude mouse (BALB/cSlc-nu, SPF, male, 5 weeks old), and the resultant mouse was bred for 10 days to create a mouse having a stomach cancer tissue grown therein. After anesthetizing the mouse (weight: about 20 g) by subcutaneous administration of ketamine (75 mg/kg) and medetomidine (1 mg/kg), the compound III (120 nmol/kg weight) was administered through the tail vein, and near-infrared fluorescence was observed from above the skin on the back side with a near-infrared fluorescence imaging device (pde-neo, manufactured by Hamamatsu Photonics K.K.).

RenCa kidney cancer cell = test: near-infrared fluorescence observation of kidney, kidney cancer mouse (RenCa in left kidney); format: in vivo; conditions: tail vein 12 nmol/kg, after 10 minutes
Procedure: Under anesthesia by subcutaneous administration of ketamine (75 mg/kg) and medetomidine (1 mg/kg), RenCa kidney cancer cell (5×10^6 cells, purchased from CLS Cell Lines Service GmbH, Eppelheim, Germany) was transplanted into the left kidney of a mouse (weight: about 20 g), and the resultant mouse was bred for 9 to 14 days to create a kidney cancer mouse. […] The fluorescence from a cancer tissue was weak, the fluorescence from a normal tissue was strong, and thus, the cancer tissue and the normal tissue could be distinguished from each other (FIG. 24).

[4] = system: Human esophageal cancer cell KYSE850; test: near-infrared fluorescence observation, human esophageal cancer subcutaneous transplant mouse model; format: in vivo; conditions: nude mouse, tail vein 120 nmol/kg, 30 seconds after administration
Description: Human esophageal cancer cell KYSE850 was subcutaneously transplanted into the neck of a nude mouse (BALB/cSlc-nu, SPF, male, 5 weeks old), and the resultant mouse was bred for 18 days to create a mouse having esophageal cancer grown therein. The human esophageal cancer cell KYSE850 was purchased from JCRB cell bank of National Institutes of Biomedical Innovation, Health and Nutrition (Registration Number: JCRB1422, establisher: Graduate School of Pharmaceutical Sciences, Kyoto University, Department of Nanobio Drug Discovery, Yutaka Shimada).
The near-infrared fluorescence from a cancer tissue (circled site) was strong, and that from a normal tissue was weak (FIG. 25). It is noted that fluorescence in an elliptical frame corresponds to near-infrared fluorescence from the right and left kidneys.

mouse tumor cell 4T1 = test: near-infrared fluorescence imaging after administration into tumor, 4T1 breast cancer model; format: in vivo
Description: (§1) A syngeneic tumor transplanted mouse model was created as follows referring to “Gan-Shikkan Model no Sakusei to Riyo (Cancer-Creation and Use of Disease Model)” (Takuro Nakamura, LIC, 2012). • (Breast Cancer) A tumor model was created by breeding a normal Balb/c mouse (weight: about 20 g to 30 g) for 14 days with mouse tumor cell 4T1 subcutaneously administered thereto. • (Colorectal Cancer) A tumor model was created by breeding a normal Balb/c mouse (weight: about 20 g to 30 g) for 14 days with CT26 (colorectal cancer cell) subcutaneously administered thereto. • (Skin Cancer) A tumor model was created by breeding a C57BL/6 mouse (weight: about 15 g to 20 g) for 14 days with B16F1 (skin cancer cell) subcutaneously administered thereto.
(§2) Subsequently, to the tumor of each of the model mice, 0.02 to 0.05 mL of a saline containing the compound III or ICG (concentration of the compound III or ICG: 1 mg/mL) was administered, and fluorescence imaging was performed transdermally with a near-infrared fluorescence camera (Fluobeam, manufactured by Fluoptics, http://www.solve-net.com/info/wp-content/uploads/downloads/2013/12/Fluobeam.pdf) (excitation wavelength: 780 nm, detection wavelength: 800 nm or more).

[5] = system: CT26 (colorectal cancer cell); test: near-infrared fluorescence imaging after administration into tumor, CT26 colorectal cancer model; format: in vivo, mouse; conditions: 0.02 to 0.05 mL of 1 mg/mL saline, transdermal imaging
Description: as §1, §2

[6] = MKN45-Luc peritoneal dissemination nude mouse

Compound: COC1=C(/C=C/C2=[N+](CCC(=O)NCCCO[C@H]3[C@H]4O[C@H]5[C@H](O)[C@@H](O)[C@@H](O[C@H]6[C@H](O)[C@@H](O)[C@@H](O[C@H]7[C@H](O)[C@@H](O)[C@@H](O[C@H]8[C@H](O)[C@@H](O)[C@@H](O[C@H]9[C@H](O)[C@@H](O)[C@@H](O[C@H]%10[C@H](O)[C@@H](O)[C@@H](O[C@@H]([C@@H]3O)[C@@H](CO)O4)O[C@@H]%10CO)O[C@@H]9CO)O[C@@H]8CO)O[C@@H]7CO)O[C@@H]6CO)O[C@@H]5CO)c3ccc4ccccc4c3C2(C)C)CCC/C1=C\C=C1\N(CCC(=O)NCCCO[C@H]2[C@H]3O[C@H]4[C@H](O)[C@@H](O)[C@@H](O[C@H]5[C@H](O)[C@@H](O)[C@@H](O[C@H]6[C@H](O)[C@@H](O)[C@@H](O[C@H]7[C@H](O)[C@@H](O)[C@@H](O[C@H]8[C@H](O)[C@@H](O)[C@@H](O[C@H]9[C@H](O)[C@@H](O)[C@@H](O[C@@H]([C@@H]2O)[C@@H](CO)O3)O[C@@H]9CO)O[C@@H]8CO)O[C@@H]7CO)O[C@@H]6CO)O[C@@H]5CO)O[C@@H]4CO)c2ccc3ccccc3c2C1(C)C.[Cl-] [compound III, 3-(3-{[3-(cyclomaltoheptaose-21-O-yl)propyl]amino}-3-oxopropyl)-2-{(1E)-2-[(3E)-3-{(2E)-2-[3-(3-{[3-(cyclomaltoheptaose-21-O-yl)propyl]amino}-3-oxopropyl)-1,1-dimethyl-1,3-dihydro-2H-benzo[e]indol-2-ylidene]ethylidene}-2-methoxycyclohexa-1-en-1-yl]ethene-1-yl}-1,1-dimethyl-1H-benzo[e]indol-3-ium chloride]
- retention inside the tumor (fluorescence imaging) [1]: retained inside the tumor
- near-infrared fluorescence of dissemination present in the entire abdominal cavity [2, 6]: emitted the near-infrared fluorescence
- near-infrared fluorescence of visually recognizable cancer tissue (nearly necrotic) [2, 6]: did not emit the near-infrared fluorescence
- near-infrared fluorescence from abdominal cavity of normal mouse ([2]; normal nude mouse): not emitted
- near-infrared fluorescence of stomach cancer tissue versus normal tissue [3]: stronger in a cancer tissue than in a normal tissue
- fluorescence from kidney cancer tissue (RenCa kidney cancer cell): weak
- fluorescence from normal kidney tissue (RenCa kidney cancer cell): strong
- near-infrared fluorescence from esophageal cancer tissue [4]: strong
- near-infrared fluorescence from normal tissue [4]: weak
- retention in tumor (fluorescence imaging) (mouse tumor cell 4T1; 4T1 breast cancer model, 0.02 to 0.05 mL of 1 mg/mL saline, transdermal imaging): retained in the tumor
- drawing of tumor outline / exudation to surrounding tissues (mouse tumor cell 4T1; 4T1 tumor, 1 mg/mL saline, fluorescence imaging, incl. during tumor excision operation): did not exude to surrounding tissues but the outline of the tumor was drawn
- retention in tumor (fluorescence imaging) [5]: retained in the tumor
